# pIC50: −log10 of the molar value.
# Molecular target: PKBα (Homo sapiens, UniProt P31749)
# Assay: PKB kinase assay (P33-labeled ATP, peptide substrate, filter plate)
# Type: biochemical
# Conditions: PKBα enzyme (full length or kinase domain with pleckstrin domain deleted)
# From the text: The kinase assay for evaluating PKB activity comprises active PKB enzymes, a PKB specific substrate, and P^33-labeled ATP. […] The phosphorylated substrate was captured by a phosphocellulose membrane filter plate (MLLIPORE) and measured by a Wallac Microbeta liquid scintillation counter (Perkin Elmer).
# PKBα, sequence (P31749 118-480 limits assumed): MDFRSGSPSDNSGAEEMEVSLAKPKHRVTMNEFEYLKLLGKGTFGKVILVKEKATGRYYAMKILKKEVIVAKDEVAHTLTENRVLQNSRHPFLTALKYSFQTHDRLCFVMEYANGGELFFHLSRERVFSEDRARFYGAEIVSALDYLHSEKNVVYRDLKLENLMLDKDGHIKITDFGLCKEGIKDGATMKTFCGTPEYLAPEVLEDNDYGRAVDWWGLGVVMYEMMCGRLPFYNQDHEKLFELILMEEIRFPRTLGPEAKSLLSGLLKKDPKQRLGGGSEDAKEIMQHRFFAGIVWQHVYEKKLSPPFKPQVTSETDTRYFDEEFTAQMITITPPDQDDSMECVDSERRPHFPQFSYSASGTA
row,pIC50,SMILES
1,6.00 to 7.30,"COc1cc(C[C@H](N)CNc2ncc(-c3ccc4c(c3)CNC4=O)s2)cnc1C(F)(F)F [Example 238, 5-(2-((S)-2-amino-3-(5-methoxy-6-(trifluoromethyl)pyridin-3-yl)propylamino)thiazol-5-yl)isoindolin-1-one]"
2,6.00 to 7.30,"CCOCc1nc(NC[C@@H](N)Cc2ccc(Cl)cc2)sc1-c1nc2ccncc2s1 [Example 77, N—((S)-2-amino-3-(4-chlorophenyl)propyl)-4-(ethoxymethyl)-5-(thiazolo[5,4-c]pyridin-2-yl)thiazol-2-amine]"
3,> 7.30,"N[C@H](CNc1ncc(-c2ccc3cnccc3c2)s1)Cc1ccc2ccccc2c1 [Example 202, N—((S)-2-amino-3-(naphthalen-2-yl)propyl)-5-(isoquinolin-6-yl)thiazol-2-amine]"
4,6.00 to 7.30,"N[C@H](CNc1ncc(-c2ccc3c(c2)C2(CC2)C(=O)N3)s1)Cc1ccc(C(F)(F)F)cc1 [Example 199, 5′-(2-((S)-2-amino-3-(4-(trifluoromethyl)phenyl)propylamino)thiazol-5-yl)spiro[cyclopropane-1,3′-indol]-2′(1′H)-one]"
5,5.00 to 6.00,"CNc1n[nH]c2ccc(-c3cnc(NC[C@@H](N)Cc4c[nH]c5ccccc45)s3)cc12 [Example 45, 5-(2-((S)-2-amino-3-(1H-indol-3-yl)propylamino)thiazol-5-yl)-N-methyl-1H-indazol-3-amine]"
6,> 7.30,"N[C@H](CNc1ncc(-c2cc3oc(=O)[nH]c3cc2F)s1)Cc1ccc(C(F)(F)F)cc1 [Example 112, 6-(2-((S)-2-Amino-3-(4-(trifluoromethyl)phenyl)propylamino)thiazol-5-yl)-5-fluorobenzo[d]oxazol-2(3H)-one]"
7,5.00 to 6.00,"N#Cc1nc(NC[C@@H](N)Cc2ccc(C(F)(F)F)cc2)sc1-c1ccc2c(c1)CC(=O)N2 [Example 61, 2-((S)-2-amino-3-(4-(trifluoromethyl)phenyl)propylamino)-5-(2-oxoindolin-5-yl)thiazole-4-carbonitrile]"
8,5.00 to 6.00,"Cn1c(=O)[nH]c2ccc(-c3sc(NC[C@@H](N)Cc4ccc(C(F)(F)F)cc4)nc3C#N)cc21 [Example 62, 2-((S)-2-amino-3-(4-(trifluoromethyl)phenyl)propylamino)-5-(3-methyl-2-oxo-2,3-dihydro-1H-benzo[d]imidazol-5-yl)thiazole-4-carbonitrile]"
9,> 7.30,"N[C@H](CNc1ncc(-c2ccc3cnccc3c2)s1)Cc1ccc(Cl)s1 [Example 211, N—((S)-2-amino-3-(5-chlorothiophen-2-yl)propyl)-5-(isoquinolin-6-yl)thiazol-2-amine]"
10,6.00 to 7.30,"N[C@H](CNc1ncc(-c2ccc3cnncc3c2)s1)Cc1ccc(C(F)(F)F)cc1 [Example 64, N—((S)-2-amino-3-(4-(trifluoromethyl)phenyl)propyl)-5-(phthalazin-6-yl)thiazol-2-amine]"
11,5.00 to 6.00,"Cn1c(=O)[nH]c2ccc(-c3sc(NC[C@@H](N)Cc4ccc(C(F)(F)F)cc4)nc3-c3ccccc3F)cc21 [Example 249, 6-(2-((S)-2-amino-3-(4-(trifluoromethyl)phenyl)propylamino)-4-(2-fluorophenyl)thiazol-5-yl)-1-methyl-1H-benzo[d]imidazol-2(3H)-one]"
12,> 7.30,"N[C@H](CNc1ncc(-c2cc3ccncc3s2)s1)Cc1ccc(C(F)(F)F)cc1 [Example 108, N—((S)-2-amino-3-(4-(trifluoromethyl)phenyl)propyl)-5-(thieno[2,3-c]pyridin-2-yl)thiazol-2-amine]"
13,6.00 to 7.30,"COC(=O)c1nc(NC[C@@H](N)Cc2ccc(C(F)(F)F)cc2)sc1-c1ccc2c(c1)CC(=O)N2 [Example 122, Methyl 2-((S)-2-amino-3-(4-(trifluoromethyl)phenyl)propylamino)-5-(2-oxoindolin-5-yl)thiazole-4-carboxylate]"
14,5.00 to 6.00,"N#Cc1nc(NC[C@@H](N)Cc2ccc(C(F)(F)F)cc2)sc1-c1ccc2cnccc2c1 [Example 63, 2-((S)-2-amino-3-(4-(trifluoromethyl)phenyl)propylamino)-5-(isoquinolin-6-yl)thiazole-4-carbonitrile]"
15,6.00 to 7.30,"C[C@@H](c1ccc(C(F)(F)F)cc1)[C@H](N)CNc1ncc(-c2ccc3[nH]c(=O)n(C)c3c2)s1 [Example 93, 6-(2-((2S,3S)-2-amino-3-(4-(trifluoromethyl)phenyl)butylamino)thiazol-5-yl)-1-methyl-1H-benzo[d]imidazol-2(3H)-one]"
16,> 7.30,N[C@H](CNc1ncc(-c2ccc3[nH]c(=O)oc3c2)s1)Cc1ccc(C(F)(F)F)c(O)c1 [Example 210]
17,6.00 to 7.30,"N[C@H](CNc1ncc(-c2ccc3[nH]c(=O)[nH]c3c2)s1)Cc1ccc(C(F)(F)F)cc1 [Example 193, 5-(2-((S)-2-amino-3-(4-(trifluoromethyl)-phenyl)propylamino)thiazol-5-yl)-1H-benzo[d]imidazol-2(3H)-one]"
18,6.00 to 7.30,"NC(CNc1ncc(-c2ccc3c(c2)CC(=O)N3)s1)Cc1ccc(C(F)(F)F)cc1F (stereo not drawn) [Example 176, 5-(2-(-2-amino-3-(2-fluoro-4-(trifluoromethyl)phenyl)propylamino)thiazol-5-yl)indolin-2-one]"

row,pIC50,SMILES
1,6.00 to 7.30,"N[C@H](CNc1nc(-c2cccc(F)c2F)c(-c2ccc3cnccc3c2)s1)Cc1ccc(C(F)(F)F)cc1 [Example 100, N—((S)-2-Amino-3-(4-(trifluoromethyl)phenyl)propyl)-4-(2,3-difluorophenyl)-5-(isoquinolin-6-yl)thiazol-2-amine]"
2,> 7.30,"NC(CNc1ncc(-c2ccc3[nH]c(=O)oc3c2)s1)Cc1ccc(C(F)(F)F)c(F)c1 (stereo not drawn) [Example 181, 6-(2-(2-amino-3-(3-fluoro-4-(trifluoromethyl)phenyl)propylamino)thiazol-5-yl)benzo[d]oxazol-2(3H)-one]"
3,6.00 to 7.30,"N[C@H](CNc1ncc(-c2ccc3c(c2)CC(=O)N3)s1)Cc1cccc(C(F)(F)F)c1 [Example 44, 5-(2-((S)-2-amino-3-(3-(trifluoromethyl)phenyl)propylamino)thiazol-5-yl)indolin-2-one]"
4,> 7.30,"N[C@H](CNc1ncc(-c2ccc3[nH]c(=O)oc3c2)s1)Cc1ccc2ccccc2c1 [Example 204, 6-(2-((S)-2-amino-3-(naphthalen-2-yl)propylamino)thiazol-5-yl)benzo[d]oxazol-2(3H)-one]"
5,5.00 to 6.00,"C[C@@H](c1ccccc1)[C@H](N)CNc1ncc(-c2ccc3c(c2)CC(=O)N3)s1 [Example 90, 5-(2-((2S,3S)-2-Amino-3-phenylbutylamino)thiazol-5-yl)indolin-2-one]"
6,6.00 to 7.30,"COc1ccc(C[C@H](N)CNc2ncc(-c3ccc4[nH]c(=O)oc4c3)s2)cc1 [Example 78, 6-(2-((S)-2-amino-3-(4-methoxyphenyl)propylamino)thiazol-5-yl)benzo[d]oxazol-2(3H)-one]"
7,> 7.30,"COC(=O)c1nc(NC[C@@H](N)Cc2ccc(C(F)(F)F)cc2)sc1-c1ccc2cnccc2c1 [Example 117, Methyl 2-((S)-2-amino-3-(4-(trifluoromethyl)phenyl)-propylamino)-5-(isoquinolin-6-yl)thiazole-4-carboxylate]"
8,6.00 to 7.30,"N[C@H](CNc1nc(-c2ccccc2)c(-c2ccc3cnccc3c2)s1)Cc1ccc(C(F)(F)F)cc1 [Example 9, N—((S)-2-amino-3-(4-(trifluoromethyl)phenyl)propyl)-5-(isoquinolin-6-yl)-4-phenylthiazol-2-amine]"
9,> 7.30,"C[C@@H](c1ccc(C(F)(F)F)cc1)[C@H](N)CNc1ncc(-c2ccc3c(c2F)CC(=O)N3)s1 [Example 225, 5-(2-((2S,3S)-2-amino-3-(4-(trifluoromethyl)phenyl)butylamino)thiazol-5-yl)-4-fluoroindolin-2-one]"
10,6.00 to 7.30,"N[C@@H](Cc1ccc(C(F)(F)F)cc1)CN(Cc1ccccc1)c1ncc(-c2nc3ccncc3s2)s1 [Example 30, N—((S)-2-amino-3-(4-(trifluoromethyl)phenyl)propyl)-N-benzyl-5-(thiazolo[5,4-c]pyridin-2-yl)thiazol-2-amine]"
11,5.00 to 6.00,"C[C@@H](c1ccccc1)[C@H](N)CNc1ncc(-c2ccc3[nH]c(=O)oc3c2)s1 [Example 88, 6-(2-((2S,3S)-2-Amino-3-phenylbutylamino)thiazol-5-yl)benzo[d]oxazol-2(3H)-one]"
12,> 7.30,"N[C@H](CNc1nc(C#CCO)c(-c2ccc3[nH]c(=O)oc3c2)s1)Cc1ccc(C(F)(F)F)cc1 [Example 150, 6-(2-((S)-2-amino-3-(4-(trifluoromethyl)phenyl)propylamino)-4-(3-hydroxyprop-1-ynyl)thiazol-5-yl)benzo[d]oxazol-2(3H)-one]"
13,6.00 to 7.30,"N[C@H](CNc1ncc(-c2ccc3[nH]c(=O)oc3c2)s1)Cc1ccc(Cl)s1 [Example 213, 6-(2-((S)-2-amino-3-(5-chlorothiophen-2-yl)propylamino)thiazol-5-yl)benzo[d]oxazol-2(3H)-one]"
14,6.00 to 7.30,"N[C@H](CNc1ncc(-c2ccc3c(O)nncc3c2)s1)Cc1ccc(C(F)(F)F)cc1 [Example 65, 6-(2-((S)-2-amino-3-(4-(trifluoromethyl)phenyl)propylamino)thiazol-5-yl)phthalazin-1-ol]"
15,6.00 to 7.30,"Cc1n[nH]c2ccc(-c3cnc(NC[C@@H](N)Cc4c[nH]c5ccccc45)s3)cc12 [Example 2, N—((S)-2-amino-3-(1H-indol-3-yl)propyl)-5-(3-methyl-1H-indazol-5-yl)thiazol-2-amine]"
16,6.00 to 7.30,"C[C@H](Nc1ncc(-c2ccc3cnccc3c2)s1)[C@@H](N)Cc1ccc(C(F)(F)F)cc1 [Example 235, N-((2S,3S)-3-amino-4-(4-(trifluoromethyl)phenyl)butan-2-yl)-5-(isoquinolin-6-yl)thiazol-2-amine]"
17,> 7.30,"N[C@H](CNc1ncc(-c2ccc3[nH]c(=O)oc3c2)s1)Cc1ccc(Cl)cc1 [Example 55, 6-(2-((S)-2-Amino-3-(4-chlorophenyl)propylamino)thiazol-5-yl)benzo[d]oxazol-2(3H)-one]"
18,> 7.30,"N[C@H](CNc1ncc(-c2ccc3[nH]ncc3c2)s1)Cc1ccc(C(F)(F)F)c(F)c1 [Example 186, N—((S)-2-amino-3-(3-fluoro-4-(trifluoromethyl)phenyl)propyl)-5-(1H-indazol-5-yl)thiazol-2-amine]"
